One series deals with Hypoaspis aculeifer. The following applies: chronic/long-term; mortality.
A further series concerns Elodea callitrichoides. The following applies: chronic/long-term; duration: 42 days.
A further series relates to Tagia sp. The settings on record: chronic/long-term; growth.
Another series relates to Daphnia magna. The settings on record: chronic/long-term; duration: 21 days; reproduction.
Another series deals with Rattus norvegicus. The following applies: acute; oral; mortality.
In a further series the test system is Apis mellifera. The following applies: acute, mortality.
Another series concerns Colinus virginianus. The settings on record: for LD50: acute, oral, mortality.
Another series concerns Oryctolagus sp. The following applies: reproduction developmental.

Values after ≈ are worked out from the molar mass of the structure shown.

Regarding `CNC1=C(c2cccc(C(F)(F)F)c2)C(=O)C(c2ccccc2)O1` (stereo not drawn) [Flurtamone], the NOEC amounted to 89 mg/kg in the series on Hypoaspis aculeifer; 0.188 mg/L in the series on Pimephales promelas (chronic/long-term, growth); 0.001 mg/L in the series on Elodea callitrichoides; 47.5 mg/kg in the series with Tagia sp.; 0.071 mg/L with Daphnia magna. The LC50 in the series on Pimephales promelas (acute, duration: 96 hours, oral, feed, mortality) turned out to be 6.64 µg/mL (≈ 19.9 µM). Moreover, the LD50 in the series with Rattus norvegicus is over 5000 mg/kg-day; in the series with Apis mellifera (dermal), over 100 µg/piece; in the series on Apis mellifera (oral, unspecified) it was over 105 µg/piece; in the series with Colinus virginianus (diet) it was over 1580 mg/kg-day; in the series on Colinus virginianus it was over 2530 mg/kg. In the series on Colinus virginianus (reproduction developmental), this compound had an NOEL of 7.3 mg/kg-day. For the same compound, in the series with Oryctolagus sp., the NOAEL stood at 20 mg/kg-day.

For orientation: LC50 means the concentration that kills 50% of the test population. By NOAEL is commonly meant the highest dose or exposure tested at which no adverse effect was seen.

The values are drawn from EPA's ToxValDB 9.5 (doi:10.2903/j.efsa.2017.4976).
